Results on two compounds are retold here after patent US11325892B2, “Compounds and methods for treating cancer” (Mayo Foundation for Medical Education and Research, priority 2014, dated 2022).

Common to all, as to type: cell-based
The subject of experiment [1] is ATC cells. Description: Proliferative dose response of thyroid cells. The note with it: ATC cells; for proliferation: 72H treatment; for 50% effective concentrations (EC50): proliferation. On the procedure: (§1) Cells were seeded at 5,000 cells/well in clear-bottom 96-well plates in triplicate in Maintenance Media. Drug treatment was applied at a concentration of 1:1000 in reduced serum (3%) Maintenance Media. After 72 hours, cells were washed with PBS, and stored at −80° C. prior to analysis using CyQuant® Proliferation Analysis Kit (Invitrogen) as per manufacturers' protocol for relative fluorescence units. Alternatively, cells were plated 2×10^5/well in 12-well plates (Midwest Scientific) in triplicate prior to drug treatment. After 120 hour treatment, cell number was established using a Coulter Particle Counter (Beckman). Or, cells were plated (0.5 or 1×10^5/well) in 24-well plates (Midwest Scientific), 3×. After 72 hour treatment, cell number established using Coulter Particle Counter (Beckman). Oleic acid-albumin (Sigma Aldrich) was added to media at 5 μM, and was applied adjuvant to drug treatment. Drug stocks were prepared in DMSO (Sigma) at 1000×. EC50 dosing per cell line was calculated using CalcuSyn® analytical software.
The efficacy of pharmacologic inhibition of this enzyme on tumor cell proliferation after a 72H treatment was determined, using A939572-a commercially available small molecule SCD1 inhibitor (Xin Z, Zhao H, Serby M D, Liu B, Liu M, Szczepankiewicz B G, Nelson L T, Smith H T, Suhar T S, Janis R S, Cao N, Camp H S, Collins C A, Sham H L, Surowy T K, Liu G. Discovery of piperidine-aryl urea-based stearoyl-CoA desaturase 1 inhibitors. Bioorg Med Chem Lett. 2008; 18(15):4298-302). […] Despite conspicuous SCD1 expression in 4 of the 5 FTC cells tested, no response to A939572 was observed (FIG. 10D).
THJ29T, THJ16T, and KTC2 were treated with carfilzomib (FIG. 12A) or bortezomib for 72H in order to establish EC50 values. […] Anti-proliferative drug synergy was evaluated in THJ29T and THJ16T treated with either A939572 or MF-438 in combination with either bortezomib or carfilzomib for 48H. Synergy was assessed using CalcuSyn analytical software, which determines the combination index (CI) based on the Chou-Talalay method where CI values >1 represent an antagonistic effect and values <1 represent synergy, and lower values signify enhanced synergy (Chou T C, Talalay P. Analysis of Combined Drug Effects—a New Look at a Very Old Problem. Trends in Pharmacological Sciences. 1983; 4(11):450-4).

The test system of experiment [2] is THJ29T, THJ16T and KTC2 cells. Nature of the experiment: Oleic acid rescue of proliferation in ATC cells. The note with it: EC50 dose for 72H with 5 μM oleic acid. As for the experimental part: as §1, with “software. […]” for “software.”
The test system of experiment [3] is PARP cleavage and CHOP expression in THJ29T and THJ16T. Nature of the experiment: Western blot for PARP cleavage and CHOP expression, combinatorial therapy. Particulars: EC50 doses, 48H. As for the experimental part: Protein extraction and western blot analysis was performed as previously described (Copland J A, Marlow L A, Kurakata S, et al. Novel high-affinity PPARgamma agonist alone and in combination with paclitaxel inhibits human anaplastic thyroid carcinoma tumor growth via p21WAF1/CIP1. Oncogene. Apr 13 2006; 25(16):2304-2317). Primary antibodies included SCD1 (Sigma-Aldrich, #HPA012107), BiP (Cell Signaling, #3183), CHOP (Cell Signaling, #2895), sXBP1(Santa Cruz Biotechnology, #sc-7160), PARP(Cell Signaling, #9542), and β-actin (Sigma-Aldrich, #A5441).
THJ29T and THJ16T treated for 48H with EC50 doses of either A939572 or MF-438 in combination with either carfilzomib or bortezomib were probed for PARP cleavage and CHOP expression, both markers indicative of apoptosis (FIGS. 14A-B, 15A-B). […] Cell death was additionally examined via flow cytometry using propidium iodide staining. THJ29T and THJ16T were treated for 48H with EC50 doses of either A939572 or MF-438 in combination with either carfilzomib or bortezomib prior to staining and analysis.
On the technique in general: A western blot detects proteins with antibodies after separation by electrophoresis.

In experiment [4] the test system is GADD45a, DDIT3, HERPUD1 transcripts in THJ29T, THJ16T, and KTC2. Description: QPCR of UPR markers in ATC cells. Particulars: 10 μM, 24 hours; all cell lines; OA restored expression to control levels. The text has this: RNA isolation, preparation of cDNA, and QPCR performed as previously described (Tun H W, Marlow L A, von Roemeling C A, Cooper S J, Kreinest P, Wu K, Luxon B A, Sinha M, Anastasiadis P Z, Copland J A. Pathway signature and cellular differentiation in clear cell renal cell carcinoma. PLoS One. 2010; 5(5):e10696). TaqMan®CDFAM™ dye-labeled probes: GAPDH(Hs99999905_ml), POLR2A(Hs00172187_ml), SCD/(Hs01682761_HSPA5(Hs99999174_ml), GADD45A(Hs00169255_ml), DD/T3(Hs01090850_ml), and HERPUD/(Hs01124269_ml). Fold-change comparisons between normal vs. tumor, and DMSO vs. drug treated samples calculated using the […] method (Schmittgen T D, Livak K J. Analyzing real-time PCR data by the comparative C(T) method. Nat Protoc. 2008; 3 (6): 1101-8).
Exogenous application of MUFAs, such as oleic or palmitoleic acid, can rescue the proliferative defects generated by SCD1 inhibition as these are the primary products of SCD1 enzymatic activity (Roongta U V, Pabalan J G, Wang X, Ryseck R P, Fargnoli J, Henley B J, Yang W P, Zhu J, Madireddi M T, Lawrence R M, Wong T W, Rupnow B A. Cancer cell dependence on unsaturated fatty acids implicates stearoyl-CoA desaturase as a target for cancer therapy. Mol Cancer Res. 2011; 9(11):1551-61). THJ29T, THJ16T and KTC2 cells were treated with the EC50 dose of A939572 or MF-438 for 72H with or without 5 μM of oleic acid (OA). […]

The structures appear in SMILES notation.

For `Cc1nnc(-c2ccc(N3CCC(Oc4ccccc4C(F)(F)F)CC3)nn2)s1` [MF-438, 2-methyl-5-(6-(4-(2-(trifluoromethyl)phenoxy)piperidin-1-yl)pyridazin-3-yl)-1,3,4-thiadiazole], in experiment [1], the proliferation entry is recorded as “dose-dependent decrease in ATC proliferation” and the “50% effective concentrations (EC50)” value was “low nanomolar dose range”. Further, the “rescue of proliferation with OA” value in experiment [2] is reported as “complete rescue of proliferation”. Besides, the “PARP cleavage as compared to DMSO control” value in experiment [3] is recorded as “significant PARP cleavage”.
As to `CNC(=O)c1cccc(NC(=O)N2CCC(Oc3ccccc3Cl)CC2)c1` [A939572], in experiment [1], the proliferation result is given as “dose-dependent decrease in proliferation” and the “50% effective concentrations (EC50)” value is given as “low nanomolar dose range”. Besides, the “rescue of proliferation with OA” value in experiment [2] is reported as “complete rescue of proliferation”. In experiment [4], the “transcription of UPR markers GADD45a, DDIT3, HERPUD1” value is “transcriptionally upregulated”. In addition, the “PARP cleavage as compared to DMSO control” value in experiment [3] is given as “significant PARP cleavage”.
